Results as given in US20100041089A1, “IMPROVED METHOD FOR DETECTING CHEMICAL […]” (priority 2006, published 2010).

System: yeast genes (expressed mRNA)
Test: DNA chip measurement of expressed mRNA of yeast genes after culture with a toxic chemical substance
Assay type: cell-based, Saccharomyces cerevisiae S288C
Method in brief: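 Two-hour exposure of growing S. cerevisiae S288C (YPD, 25° C) to a sublethal toxicant preceded RNA isolation. Fluorescent cDNA was hybridized to a whole-genome array; a treated-to-untreated signal ratio of two or more was taken as significant.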

N#Cc1c(Cl)c(Cl)c(Cl)c(C#N)c1Cl [(9), 2,4,5,6-Tetrachloro-1,3-benzenedicarbonitrile]
The level of expressed mRNA in the presence of chemical substance/The level of expressed mRNA in the absence of chemical substance (yeast gene YAL034C, cultured two hours with substance): 3.0 | The level of expressed mRNA in the presence of chemical substance/The level of expressed mRNA in the absence of chemical substance (yeast gene YAL053W, cultured two hours with substance): 1.4 | The level of expressed mRNA in the presence of chemical substance/The level of expressed mRNA in the absence of chemical substance (yeast gene YAR027W, cultured two hours with substance): 2.3 | The level of expressed mRNA in the presence of chemical substance/The level of expressed mRNA in the absence of chemical substance (yeast gene YAR028W, cultured two hours with substance): 1.0 | The level of expressed mRNA in the presence of chemical substance/The level of expressed mRNA in the absence of chemical substance (yeast gene YBL048W, cultured two hours with substance): 7.2 | The level of expressed mRNA in the presence of chemical substance/The level of expressed mRNA in the absence of chemical substance (yeast gene YBL065W, cultured two hours with substance): 20.8 | The level of expressed mRNA in the presence of chemical substance/The level of expressed mRNA in the absence of chemical substance (yeast gene YBL075C (stress protein genes)): 60.3 | The level of expressed mRNA in the presence of chemical substance/The level of expressed mRNA in the absence of chemical substance (yeast gene YBL107C, cultured two hours with substance): 1.0 | The level of expressed mRNA in the presence of chemical substance/The level of expressed mRNA in the absence of chemical substance (yeast gene YBR008C (transport facilitation protein gene)): 54.6 | The level of expressed mRNA in the presence of chemical substance/The level of expressed mRNA in the absence of chemical substance (yeast gene YBR072W (stress protein genes)): 29.4 | The level of expressed mRNA in the presence of chemical substance/The level of expressed mRNA in the absence of chemical substance (yeast gene YBR096W, cultured two hours with the chemical substance): 1.2 | The level of expressed mRNA in the presence of chemical substance/The level of expressed mRNA in the absence of chemical substance (yeast gene YBR256C): 18.1 | The level of expressed mRNA in the presence of chemical substance/The level of expressed mRNA in the absence of chemical substance (yeast gene YCR082W, cultured two hours with substance): 4.3 | The level of expressed mRNA in the presence of chemical substance/The level of expressed mRNA in the absence of chemical substance (yeast gene YCR107W, cultured for two hours with substance): 196.6 | The level of expressed mRNA in the presence of chemical substance/The level of expressed mRNA in the absence of chemical substance (yeast gene YDL059C, DNA repair protein genes, cultured two hours with substance): 10.5 | The level of expressed mRNA in the presence of chemical substance/The level of expressed mRNA in the absence of chemical substance (yeast gene YDL072C, cultured two hours with substance): 1.1 | The level of expressed mRNA in the presence of chemical substance/The level of expressed mRNA in the absence of chemical substance (yeast gene YDL204W, cultured two hours with substance): 2.3 | The level of expressed mRNA in the presence of chemical substance/The level of expressed mRNA in the absence of chemical substance (yeast gene YDL218W, cultured two hours with substance): 72.5 | The level of expressed mRNA in the presence of chemical substance/The level of expressed mRNA in the absence of chemical substance (yeast gene YDL222C, cultured two hours with substance): 1.9 | The level of expressed mRNA in the presence of chemical substance/The level of expressed mRNA in the absence of chemical substance (yeast gene YDL234C, cultured two hours with substance): 4.6 | The level of expressed mRNA in the presence of chemical substance/The level of expressed mRNA in the absence of chemical substance (yeast gene YDL243C, cultured for two hours with substance): 64.2 | The level of expressed mRNA in the presence of chemical substance/The level of expressed mRNA in the absence of chemical substance (yeast gene YDR018C, cultured two hours with substance): 2.3 | The level of expressed mRNA in the presence of chemical substance/The level of expressed mRNA in the absence of chemical substance (yeast gene YDR031W, cultured two hours with substance): 1.1 | The level of expressed mRNA in the presence of chemical substance/The level of expressed mRNA in the absence of chemical substance (yeast gene YDR070C, cultured two hours with substance): 13.9 | The level of expressed mRNA in the presence of chemical substance/The level of expressed mRNA in the absence of chemical substance (yeast gene YDR194C, mitochondria-located protein gene, cultured two hours with substance): 2.8 | The level of expressed mRNA in the presence of chemical substance/The level of expressed mRNA in the absence of chemical substance (yeast gene YDR214W, cultured two hours with substance): 5.5 | The level of expressed mRNA in the presence of chemical substance/The level of expressed mRNA in the absence of chemical substance (yeast gene YDR253C): 14.8 | The level of expressed mRNA in the presence of chemical substance/The level of expressed mRNA in the absence of chemical substance (yeast gene YDR330W, cultured two hours with substance): 3.9 | The level of expressed mRNA in the presence of chemical substance/The level of expressed mRNA in the absence of chemical substance (yeast gene YDR340W, cultured two hours with substance): 1.4 | The level of expressed mRNA in the presence of chemical substance/The level of expressed mRNA in the absence of chemical substance (yeast gene YDR350C, cultured two hours with substance): 2.8 | The level of expressed mRNA in the presence of chemical substance/The level of expressed mRNA in the absence of chemical substance (yeast gene YDR374C, cultured two hours with substance): 10.4 | The level of expressed mRNA in the presence of chemical substance/The level of expressed mRNA in the absence of chemical substance (yeast gene YDR391C, cultured two hours with substance): 1.5 | The level of expressed mRNA in the presence of chemical substance/The level of expressed mRNA in the absence of chemical substance (yeast gene YDR411C, cultured two hours with substance): 0.7 | The level of expressed mRNA in the presence of chemical substance/The level of expressed mRNA in the absence of chemical substance (yeast gene YDR486C, cultured two hours with substance): 2.5 | The level of expressed mRNA in the presence of chemical substance/The level of expressed mRNA in the absence of chemical substance (yeast gene YDR494W, cultured two hours with substance): 1.2 | The level of expressed mRNA in the presence of chemical substance/The level of expressed mRNA in the absence of chemical substance (yeast gene YDR511W, cultured two hours with substance): 2.5 | The level of expressed mRNA in the presence of chemical substance/The level of expressed mRNA in the absence of chemical substance (yeast gene YDR513W): 4.6 | The level of expressed mRNA in the presence of chemical substance/The level of expressed mRNA in the absence of chemical substance (yeast gene YDR545W, cultured two hours with substance): 1.8 | The level of expressed mRNA in the presence of chemical substance/The level of expressed mRNA in the absence of chemical substance (yeast gene YEL001C, cultured two hours with substance): 2.0 | The level of expressed mRNA in the presence of chemical substance/The level of expressed mRNA in the absence of chemical substance (yeast gene YER004W, cultured two hours with substance): 4.5 | The level of expressed mRNA in the presence of chemical substance/The level of expressed mRNA in the absence of chemical substance (yeast gene YER035W, cultured two hours with substance): 1.2 | The level of expressed mRNA in the presence of chemical substance/The level of expressed mRNA in the absence of chemical substance (yeast gene YER038C, cultured two hours with substance): 0.7 | The level of expressed mRNA in the presence of chemical substance/The level of expressed mRNA in the absence of chemical substance (yeast gene YER079W, cultured two hours with substance): 5.3 | The level of expressed mRNA in the presence of chemical substance/The level of expressed mRNA in the absence of chemical substance (yeast gene YER096W, metabolism protein genes): 7.5 | The level of expressed mRNA in the presence of chemical substance/The level of expressed mRNA in the absence of chemical substance (yeast gene YER103W (stress protein genes)): 20.3 | The level of expressed mRNA in the presence of chemical substance/The level of expressed mRNA in the absence of chemical substance (yeast gene YER106W, cultured two hours with substance): 0.4 | The level of expressed mRNA in the presence of chemical substance/The level of expressed mRNA in the absence of chemical substance (yeast gene YER158C, cultured two hours with substance): 2.1 | The level of expressed mRNA in the presence of chemical substance/The level of expressed mRNA in the absence of chemical substance (yeast gene YER163C, cultured two hours with substance): 5.4 | The level of expressed mRNA in the presence of chemical substance/The level of expressed mRNA in the absence of chemical substance (yeast gene YER175C, cultured two hours with substance): 1.9 | The level of expressed mRNA in the presence of chemical substance/The level of expressed mRNA in the absence of chemical substance (yeast gene YFL006W, cultured two hours with substance): 3.2
